“And” between values parts separate entries of the source, which are not always exact repeats. Equal values may be shown once. Toxic doses and inconclusive results are not listed. No stated cut-off is given here; in the data, active means T/C of 150% or more; inactive means T/C below 125%.
Test system: L1210 leukemia ip in BDF1 mice, survival T/C
Assay: NCI In Vivo Anticancer Drug Screen. Data for tumor model L1210 Leukemia (intraperitoneal) in B6D2F1 (BDF1) mice
Conditions: endpoint: mean survival time, higher = longer survival
Summary of the method: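 Value reflects the ratio of survival in compound-treated mice to survival in vehicle-treated controls, with both groups carrying the same transplanted tumor.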

[1] = dose: 100.0 mg/kg/injection, schedule: Q01DX009 (ip), vehicle: gum acacia
[2] = dose: 100.0 mg/kg/injection, schedule: Q01DX009 (ip), vehicle: Klucel (hydroxypropylcellulose) (HPC)
[3] = dose: 200.0 mg/kg/injection, schedule: Q01DX009 (ip), vehicle: Klucel (hydroxypropylcellulose) (HPC)
[4] = dose: 400.0 mg/kg/injection, schedule: Q01DX009 (ip), vehicle: Klucel (hydroxypropylcellulose) (HPC)
[5] = dose: 100.0 mg/kg/injection, schedule: Q04DX003 (ip), vehicle: saline with Tween-80
[6] = dose: 200.0 mg/kg/injection, schedule: Q04DX003 (ip), vehicle: saline with Tween-80
[7] = dose: 400.0 mg/kg/injection, schedule: Q04DX003 (ip), vehicle: saline with Tween-80

Measured: T/C

Cc1c(N=Cc2ccccc2)c(=O)n(-c2ccccc2)n1C
inactive: [1] 104 % of control | dose: 100.0 mg/kg/injection, schedule: Q04DX003 (ip), vehicle: gum acacia 100 % of control | dose: 200.0 mg/kg/injection, schedule: Q04DX003 (ip), vehicle: gum acacia 95 % of control | dose: 400.0 mg/kg/injection, schedule: Q01DX009 (ip), vehicle: gum acacia 88 % of control | dose: 400.0 mg/kg/injection, schedule: Q04DX003 (ip), vehicle: gum acacia 95 % of control

O=C/C(=C/c1ccccc1)c1ccccc1
inactive: [2] 98 % of control | dose: 100.0 mg/kg/injection, schedule: Q04DX003 (ip), vehicle: Klucel (hydroxypropylcellulose) (HPC) 107 % of control | [3] 101 % of control | dose: 200.0 mg/kg/injection, schedule: Q04DX003 (ip), vehicle: Klucel (hydroxypropylcellulose) (HPC) 98 % of control | [4] 95 % of control | dose: 400.0 mg/kg/injection, schedule: Q04DX003 (ip), vehicle: Klucel (hydroxypropylcellulose) (HPC) 102 % of control

CCOC(=O)C1CCN(C(=O)c2ccccc2)c2scc(-c3ccccc3)c2C1=O (stereo unspecified)
inactive: dose: 50.0 mg/kg/injection, schedule: Q04DX003 (ip), vehicle: saline with Tween-80 94 % of control | [5] 100 % of control | [6] 92 % of control | [7] 97 % of control

CC1(C)C(=O)C=C(c2ccccc2)C1(O)c1ccccc1 (stereo unspecified)
inactive: [5] 99 % of control | [6] 96 % of control | [7] 96 % of control

COc1ccc(/C=N/NC(=O)CNC(=O)c2ccc(Cl)c(Cl)c2)cc1
inactive: dose: 12.5 mg/kg/injection, schedule: Q01DX009 (ip), vehicle: saline with Tween-80 104 % of control

Cc1cc(NC(=O)C(=O)Nc2cc(C)on2)no1
inactive: [2] 93 % of control | [3] 100 % of control | [4] 93 % of control

O=C1C2C3CCC(O3)C2C(=O)N1CCOS(=O)(=O)c1ccc(Cl)cc1 (stereo unspecified)
inactive: dose: 75.0 mg/kg/injection, schedule: Q01DX009 (ip), vehicle: carboxymethylcellulose (CMC) 93 % of control | dose: 100.0 mg/kg/injection, schedule: Q04DX003 (ip), vehicle: carboxymethylcellulose (CMC) 100 % of control | dose: 150.0 mg/kg/injection, schedule: Q01DX009 (ip), vehicle: carboxymethylcellulose (CMC) 94 % of control | dose: 200.0 mg/kg/injection, schedule: Q04DX003 (ip), vehicle: carboxymethylcellulose (CMC) 102 % of control | dose: 300.0 mg/kg/injection, schedule: Q01DX009 (ip), vehicle: carboxymethylcellulose (CMC) 91 % of control | dose: 400.0 mg/kg/injection, schedule: Q04DX003 (ip), vehicle: carboxymethylcellulose (CMC) 96 % of control

Cc1cccc(SC(=O)Nc2cccc(Cl)c2C)c1
inactive: dose: 25.0 mg/kg/injection, schedule: Q01DX009 (ip), vehicle: gum acacia 100 % of control | dose: 50.0 mg/kg/injection, schedule: Q01DX009 (ip), vehicle: gum acacia 99 % of control | [1] 97 % of control and 89 % of control

C[S+](C)Cc1ccccc1
inactive: dose: 50.0 mg/kg/injection, schedule: Q04DX003 (ip), vehicle: saline 96 % of control | dose: 100.0 mg/kg/injection, schedule: Q01DX009 (ip), vehicle: other 93 % of control | dose: 100.0 mg/kg/injection, schedule: Q04DX003 (ip), vehicle: saline 100 % of control

CCCC(=O)c1c(C)cc(C)cc1C
inactive: [2] 97 % of control | [3] 108 % of control | [4] 97 % of control

COC1OC2COC(c3ccccc3)OC2C2C1N2C#N (stereo unspecified)
inactive: dose: 25.0 mg/kg/injection, schedule: Q01DX001 (ip), vehicle: Klucel (hydroxypropylcellulose) (HPC) 100 % of control | dose: 50.0 mg/kg/injection, schedule: Q01DX001 (ip), vehicle: Klucel (hydroxypropylcellulose) (HPC) 93 % of control | dose: 100.0 mg/kg/injection, schedule: Q01DX001 (ip), vehicle: Klucel (hydroxypropylcellulose) (HPC) 100 % of control

Cc1cc(NC(=O)/C=C/c2ccc([N+](=O)[O-])cc2Cl)ccc1S(=O)(=O)F
inactive: dose: 100.0 mg/kg/injection, schedule: Q01DX001 (ip), vehicle: saline with Tween-80 92 % of control | dose: 200.0 mg/kg/injection, schedule: Q01DX001 (ip), vehicle: saline with Tween-80 93 % of control | dose: 400.0 mg/kg/injection, schedule: Q01DX001 (ip), vehicle: saline with Tween-80 92 % of control

CC(Br)C(Br)CO (stereo unspecified)
inactive: dose: 100.0 mg/kg/injection, schedule: Q01DX009 (ip), vehicle: saline 103 % of control | dose: 200.0 mg/kg/injection, schedule: Q01DX009 (ip), vehicle: saline 102 % of control | dose: 400.0 mg/kg/injection, schedule: Q01DX009 (ip), vehicle: saline 100 % of control

Source: PubChem BioAssay AID248 (DTP/NCI, 2004)
